One data set relates to model RNA 1. As to the kind of experiment: In vitro crosslinking of model RNA 1 duplex, measured by polyacrylamide electrophoresis. It is filed as biochemical. The following applies: 100 mM activated dicarboxylic acid, 10 μM model RNA 1, MOPS pH 7.5, 4 h at room temperature, PAGE. As for the experimental part: All experiments were performed in triplicate.
Source data are provided as a Source Data file.

Data set [1] in a line: Hydrolysis of the acylating reagent at physiological pH, measured by NMR. The class given is physicochemical. Here is the method:
We activated a set of eight dicarboxylic acids with diverse linker lengths and chemical properties (FIG. 1e). The efficiency of crosslinking RNA 1 was measured by polyacrylamide electrophoresis (FIG. 1e). […] This can be potentially explained by the inductive effect of the beta oxygen that substantially increases the reactivity of the activated ester, making it more susceptible to hydrolysis.
(§1) a, Minimal and maximal possible lengths between the crosslinked 2′ oxygen groups in RNA, estimated in PyMOL. Hydroxyl groups are represented by the green oxygen atoms. […] The three lanes represent triplicate experiments. c, Reaction scheme of hydrolysis reaction of DPI. d, Hydrolysis of DPI in phosphate buffer pH 7.4 analyzed by NMR spectroscopy over time. e, Formation of hydrolyzed DPI products over time. After ˜30 min all DPI has been hydrolyzed. f, Hydrolysis of ApA in 100 mM borate buffer pH 10.0 analyzed by NMR spectroscopy over time. g, Formation of hydrolyzed ApA products over time, based on quantification of panel f. […] The three lanes represent triplicate experiments. i, An increase in crosslink reversal (=decrease in crosslinked RNA) is observed at increased pH and temperature, based on quantification of gel pictures in panel h. […]

The subject of a further data set is HEK293 cells. As to the kind of experiment: In-cell SHARC crosslinking, recovery of crosslinked RNA fragments from DD2D gel. It is filed as cell-based, human. The following applies: HEK293 cells, 5, 12.5, or 25 mM DPI, RNase III fragmentation. Here is the method:
SHARC-exo accurately measures static and dynamic spatial distances in RNA in cells. To test SHARC-exo, we first crosslinked HEK293 cells with DPI, fragmented RNA with RNase III, and isolated the crosslinked fragments using the DD2D gel method. We recovered 1-2% RNA fragments as crosslinked using 5, 12.5, or 25 mM DPI. We sequenced the SHARC-exo libraries and observed 3.3-14.5% of the reads are gapped, similar to PARIS. Crosslinked reads are highly reproducible at different DPI concentrations.
In vivo crosslinking. Hela and HEK293T cells with 80% confluency in a 10 cm dish were washed twice with 1× phosphate-buffered saline (PBS). […]
a, RNase R reduces arm length in PARIS-exo. b, RNase R trimming leads to enrichment of U at the 5th nucleotide from the 3′ end. c-e, An example of precise crosslink site identification using PARIS-exo. c, vertical lines indicate the 3′ ends (median) from PARIS and PARIS-exo reads. d, The PARIS-exo derived 3′ ends and crosslinking sites are mapped to the H79 and ES31 of human 28S secondary structure. e, cryo-EM structure of H79 and ES31 (PDB: 4V6X). f, HEK293 cells are crosslinked with DPI at different concentrations. […] The smear above the diagonal represents crosslinked RNA. h, Quantification of the recovery of crosslinked RNA fragments from the DD2D gel system (replicates n=9, 16 and 4 for the 3 conditions, respectively). […]

Data set [2] in a line: Hydrolysis in borate buffer/DMSO at pH 10.0, monitored by 1H NMR. It is filed as physicochemical.
Excerpt: Reversing 2′-hydroxyl crosslinking under mild alkaline conditions without RNA damage. Reversal of the crosslinks is necessary for subsequent sequence analysis. We hypothesized that the lower stability of the 2′-acylation products relative to the phosphodiester bonds could allow selective crosslink reversal without causing RNA chain breaks. To test this, we first analyzed the rate of phosphodiester cleavage in a model RNA dinucleotide ApA (FIG. 1f). We compared it to the methyl ester of dipicolinic acid 2 (FIG. 1g), a simple ester derivative of the SHARC reagent DPI. The two compounds were incubated in a 3:1 mixture of 100 mM borate buffer and DMSO at pH 10.0, and the stability was monitored over time by ^1H NMR (FIG. 1h). […] In contrast, compound 2 was fully hydrolyzed after ˜120 min, with a rate constant of 3.5*10^−4 (FIG. 1g). From this we concluded that the ˜1000-fold difference in rate constant should provide sufficient opportunity to selectively reverse the crosslinks under mild alkaline conditions without RNA damage.
as §1

[3] abbreviates: 3:1 100 mM borate buffer/DMSO, pH 10.0, 5 mM starting concentration.

The structures appear in SMILES notation.

`O=C(COCC(=O)n1ccnc1)n1ccnc1` [Activated diglycolic acid]: the “crosslinking efficiency of RNA 1” value in the data set on model RNA 1 was 27%.

On to `O=C(CCCC(=O)n1ccnc1)n1ccnc1` [Activated glutaric acid], for which the “crosslinking efficiency of RNA 1” value in the data set on model RNA 1 was 94%.

Consider `O=C(c1cccc(C(=O)n2ccnc2)n1)n1ccnc1` [DPI, dipicolinic acid imidazolide], for which the “time after which all DPI has been hydrolyzed” value in data set [1] (phosphate buffer pH 7.4, NMR) was around 30 min. For the same molecule, the “time after which 50% was hydrolyzed” value in data set [1] (physiological pH 7.4, room temperature, NMR) was 5 min. Besides, in the data set with HEK293 cells, the “RNA fragments recovered as crosslinked” value was 1-2%.

Consider `COC(=O)c1cccc(C(=O)OC)n1` [compound 2, methyl ester of dipicolinic acid], for which, in data set [2] (setting [3]), the “rate constant of hydrolysis” value is listed as 3.5*10^−4 and the “time to full hydrolysis” value is around 120 min. The “difference in rate constant, compound 2 vs ApA” value in data set [2] (pH 10.0) was around 1000 fold.

The values above are taken from patent publication US20240166683A1, “CHEMICAL TOOLS FOR RNA 3D STRUCTURE DETERMINATION IN VIVO” (UNIVERSITY OF SOUTHERN CALIFORNIA, priority 2022, published 2024).
